Experimental data: PMC5911580, “YL143, a novel mutant selective irreversible EGFR inhibitor, overcomes EGFR^L858R, T790M‐mutant resistance in vitro and in vivo” (Cancer Medicine, 2018)

How the values were obtained:
PDGFRA = PDGFRA (Homo sapiens, UniProt P16234); experiment: Z'-Lyte kinase panel, PDGFRA; format: biochemical; conditions: 1.5 hrs incubation
Method: (§1) Kinase activity assays were performed using the FRET-based Z′-Lyte assay according to the manufacturer’s instructions. The compounds were incubated with the kinase reaction mixture for 1.5 hrs before measurement. The data are means from two independent experiments and the variations are below 20%.

EGFR^L858R/T790M = EGFR^L858R/T790M (Homo sapiens, UniProt P00533, L858R/T790M); experiment: FRET-based Z'-Lyte kinase assay, EGFR L858R/T790M; format: biochemical; design: purchased Invitrogen
EGFR^L858R/T790M, sequence (P00533 25-1210 T790M/L858R): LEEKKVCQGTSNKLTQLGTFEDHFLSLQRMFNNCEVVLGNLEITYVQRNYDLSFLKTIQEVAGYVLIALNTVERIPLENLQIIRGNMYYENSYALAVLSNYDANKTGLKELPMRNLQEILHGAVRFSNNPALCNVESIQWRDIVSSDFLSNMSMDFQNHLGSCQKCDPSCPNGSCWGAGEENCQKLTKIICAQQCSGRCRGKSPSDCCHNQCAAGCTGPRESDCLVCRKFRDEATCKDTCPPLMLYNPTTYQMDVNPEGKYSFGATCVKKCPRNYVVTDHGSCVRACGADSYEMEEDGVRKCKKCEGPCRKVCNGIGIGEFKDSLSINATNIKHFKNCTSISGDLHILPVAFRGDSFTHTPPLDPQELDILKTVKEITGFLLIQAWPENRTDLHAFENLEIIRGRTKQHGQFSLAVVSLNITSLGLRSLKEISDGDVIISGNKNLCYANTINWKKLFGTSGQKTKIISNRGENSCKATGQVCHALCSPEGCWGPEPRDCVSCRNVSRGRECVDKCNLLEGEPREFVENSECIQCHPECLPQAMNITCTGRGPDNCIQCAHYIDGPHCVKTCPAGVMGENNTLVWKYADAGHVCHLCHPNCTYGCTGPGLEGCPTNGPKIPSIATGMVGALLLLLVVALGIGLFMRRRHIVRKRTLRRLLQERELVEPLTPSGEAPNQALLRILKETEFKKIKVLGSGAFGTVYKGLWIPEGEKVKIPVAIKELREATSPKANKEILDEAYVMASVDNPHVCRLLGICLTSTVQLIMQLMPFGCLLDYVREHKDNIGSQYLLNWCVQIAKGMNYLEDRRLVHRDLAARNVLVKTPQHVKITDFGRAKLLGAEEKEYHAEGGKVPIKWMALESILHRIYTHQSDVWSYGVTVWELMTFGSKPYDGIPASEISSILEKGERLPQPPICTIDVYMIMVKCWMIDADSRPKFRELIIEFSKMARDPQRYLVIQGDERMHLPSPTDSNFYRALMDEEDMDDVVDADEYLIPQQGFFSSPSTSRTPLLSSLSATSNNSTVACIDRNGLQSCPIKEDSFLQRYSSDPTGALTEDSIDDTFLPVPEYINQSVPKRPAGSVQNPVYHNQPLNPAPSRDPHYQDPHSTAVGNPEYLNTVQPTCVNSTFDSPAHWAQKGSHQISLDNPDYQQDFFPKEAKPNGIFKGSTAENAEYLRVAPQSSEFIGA
Method: (§2) The kinase activity assay was performed and optimized according to the instructions of Z’‐LYTE™ kinase assay kits from the manufacturer (PV4879, Life, America). In our experiments, 10 concentration gradients from 0.01 nmol/L to 1.0 μmol/L were used for all the compounds.

[1] = test system: EGFR signal pathway in A431 cells; experiment: Western blot of EGFR signaling in A431 cells; format: cell-based; conditions: compared with H1975
Method: (§3) Cells were treated with various concentrations of compound for designed time. Then, cells were lysed using 1 × SDS sample lysis buffer (CST recommended) with protease and phosphatase inhibitors. Cell lysates were loaded and electrophoresed onto 8–12% SDS‐PAGE gel, and then, separated proteins were transferred to a PVDF film. The film was blocked with 5% fat‐free milk in TBS solution containing 0.5% Tween‐20 for 4 h at room temperature and then incubated with corresponding primary antibody (1:1000–1:200) overnight at 4°C. After washing with TBST, HRP‐conjugated secondary antibody was incubated for 2 h. And the protein signals were visualized by ECL Western Blotting Detection Kit (Thermo Scientific, Waltham, MA) and detected with Amersham Imager 600 system (GE, America).
The selective EGFR ^L858R/T790M inhibition of YL143 was investigated in H1975, HCC827, A549, and A431 cancer cells harboring different statuses of EGFR by Western blotting analysis (Fig. 2A).

IGF1R = IGF1R (Homo sapiens, UniProt P08069); experiment: FRET-based Z'-Lyte kinase assay, IGF1R; format: biochemical; conditions: AV ± SD; 1.5 h incubation
IGF1R, sequence (P08069 31-1367, species assumed): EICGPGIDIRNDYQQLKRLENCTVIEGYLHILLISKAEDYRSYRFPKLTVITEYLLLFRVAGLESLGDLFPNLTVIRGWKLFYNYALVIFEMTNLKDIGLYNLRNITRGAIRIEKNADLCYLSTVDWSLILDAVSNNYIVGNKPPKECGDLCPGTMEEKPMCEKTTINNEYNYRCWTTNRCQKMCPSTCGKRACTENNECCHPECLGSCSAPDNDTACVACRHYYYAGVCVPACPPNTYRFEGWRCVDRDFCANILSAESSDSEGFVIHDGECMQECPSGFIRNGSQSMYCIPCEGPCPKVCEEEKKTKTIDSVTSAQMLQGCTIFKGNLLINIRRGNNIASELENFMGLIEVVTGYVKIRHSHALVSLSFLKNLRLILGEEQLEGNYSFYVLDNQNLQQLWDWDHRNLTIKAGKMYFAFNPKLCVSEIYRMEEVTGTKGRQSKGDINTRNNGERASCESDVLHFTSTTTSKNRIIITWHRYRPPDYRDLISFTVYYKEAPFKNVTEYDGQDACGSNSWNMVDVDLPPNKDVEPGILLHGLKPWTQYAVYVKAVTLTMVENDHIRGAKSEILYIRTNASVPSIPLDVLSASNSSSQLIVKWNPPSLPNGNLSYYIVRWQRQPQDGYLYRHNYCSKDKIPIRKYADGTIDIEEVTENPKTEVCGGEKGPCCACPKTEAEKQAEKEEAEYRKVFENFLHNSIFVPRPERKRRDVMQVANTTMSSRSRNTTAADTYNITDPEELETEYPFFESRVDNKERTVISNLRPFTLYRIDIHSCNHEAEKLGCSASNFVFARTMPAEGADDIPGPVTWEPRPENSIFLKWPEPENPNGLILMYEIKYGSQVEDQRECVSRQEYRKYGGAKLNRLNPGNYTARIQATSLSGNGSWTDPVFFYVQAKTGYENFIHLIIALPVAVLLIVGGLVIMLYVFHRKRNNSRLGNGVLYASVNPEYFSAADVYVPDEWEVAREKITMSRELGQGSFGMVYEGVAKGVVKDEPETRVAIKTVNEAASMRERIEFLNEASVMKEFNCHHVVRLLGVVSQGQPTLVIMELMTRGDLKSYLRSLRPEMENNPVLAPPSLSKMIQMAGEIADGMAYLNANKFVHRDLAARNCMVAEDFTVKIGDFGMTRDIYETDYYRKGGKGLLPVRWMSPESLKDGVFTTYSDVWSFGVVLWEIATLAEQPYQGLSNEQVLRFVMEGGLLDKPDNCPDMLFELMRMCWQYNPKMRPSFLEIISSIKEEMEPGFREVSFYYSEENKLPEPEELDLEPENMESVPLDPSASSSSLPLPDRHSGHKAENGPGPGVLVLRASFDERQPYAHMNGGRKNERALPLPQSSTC
Method: as §2

Abl = Abl (Homo sapiens, UniProt P00519); experiment: Z'-Lyte kinase panel, Abl; format: biochemical; conditions: 1.5 hrs incubation
Method: as §1

[2] = test system: HCC827 (EGFR^del 19) cells; experiment: CCK-8 cell growth assay, HCC827; format: cell-based; conditions: Homo sapiens, HCC827; CCK-8, 72 h; AV ± SD; read-out: antiproliferative IC50 HCC827
Method: (§4) Cells were seeded into 96‐well plates at a density of 1500~3000/well in complete medium overnight. Then, cells were treated with various concentrations (0.01~1000 nmol/L) of YL143 for additional 3 days. Viable cell numbers were determined by Cell Counting Kit 8 (CCK8, CK04, Dojindo Laboratories, Japan). Each assay consisted of three replicate wells and repeated at least three times. […] Each IC50 value was expressed as mean ± SD.

[3] = test system: CDK2, CDK4, cyclin D2, cyclin E, caspase-3, caspase-9 in H1975 cells; experiment: Western blot of cell cycle and apoptosis proteins in H1975 cells; format: cell-based, human; conditions: 3 to 300 nmol/L, 48 h
Method: as §3
Figure 3 YL143 induces G0/G1 cell cycle arrest and apoptosis in H1975 cells. (A) YL143 induces G0/G1 cell cycle arrest in H1975 cells H1975 cells were treated with 3, 30 or 300 nmol/L for 48 h before DNA labeling by propidium iodide and cell cycle analysis by flow cytometry. (B) YL143 induces apoptosis in H1975 cells. H1975 cells were treated with 3, 30 or 300 nmol/L for 48 h before DNA labeling by Annexin V and 7‐AAD and cell apoptosis analysis by flow cytometry. (C) The effect of YL143 on the expression of CDK4, Cyclin D2, CDK2, Cyclin E, Caspase‐9 and Caspase‐3 was tested by western blotting. […]

TRKA = TRKA (Homo sapiens, UniProt P04629); experiment: Z'-Lyte kinase panel, TRKA; format: biochemical; conditions: 1.5 hrs incubation
TRKA, sequence (P04629 33-796, species assumed): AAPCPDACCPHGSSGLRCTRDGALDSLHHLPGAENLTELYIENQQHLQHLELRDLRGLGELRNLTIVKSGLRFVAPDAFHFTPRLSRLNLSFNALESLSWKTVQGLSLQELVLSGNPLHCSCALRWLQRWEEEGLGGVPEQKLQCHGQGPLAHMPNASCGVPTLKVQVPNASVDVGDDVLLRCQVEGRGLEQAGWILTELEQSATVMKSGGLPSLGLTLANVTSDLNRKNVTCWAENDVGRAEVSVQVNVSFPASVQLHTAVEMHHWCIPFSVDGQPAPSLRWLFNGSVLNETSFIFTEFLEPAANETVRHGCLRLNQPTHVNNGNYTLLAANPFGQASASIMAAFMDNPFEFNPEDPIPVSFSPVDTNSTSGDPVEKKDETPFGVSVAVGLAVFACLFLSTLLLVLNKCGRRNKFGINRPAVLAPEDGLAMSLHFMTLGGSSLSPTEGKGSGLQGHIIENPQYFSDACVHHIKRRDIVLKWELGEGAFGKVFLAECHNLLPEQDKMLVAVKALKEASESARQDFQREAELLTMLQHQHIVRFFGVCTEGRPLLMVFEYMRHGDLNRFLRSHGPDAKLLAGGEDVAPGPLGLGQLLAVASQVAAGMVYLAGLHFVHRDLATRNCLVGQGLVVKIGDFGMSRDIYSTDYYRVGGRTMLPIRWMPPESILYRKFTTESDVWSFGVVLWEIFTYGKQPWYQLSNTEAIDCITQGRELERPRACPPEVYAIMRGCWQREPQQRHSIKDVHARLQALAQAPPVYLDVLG
Method: as §1

EGFR^Del 19 = target: T1, EGFR^Del 19 (Homo sapiens, UniProt P00533, DEL746-750); experiment: FRET-based Z'-Lyte kinase assay, EGFR Del 19; format: biochemical; conditions: AV ± SD; 1.5 h incubation
T1 construct: purchased Invitrogen
T1 sequence (P00533 with tags, fused parts or gaps DEL746-750): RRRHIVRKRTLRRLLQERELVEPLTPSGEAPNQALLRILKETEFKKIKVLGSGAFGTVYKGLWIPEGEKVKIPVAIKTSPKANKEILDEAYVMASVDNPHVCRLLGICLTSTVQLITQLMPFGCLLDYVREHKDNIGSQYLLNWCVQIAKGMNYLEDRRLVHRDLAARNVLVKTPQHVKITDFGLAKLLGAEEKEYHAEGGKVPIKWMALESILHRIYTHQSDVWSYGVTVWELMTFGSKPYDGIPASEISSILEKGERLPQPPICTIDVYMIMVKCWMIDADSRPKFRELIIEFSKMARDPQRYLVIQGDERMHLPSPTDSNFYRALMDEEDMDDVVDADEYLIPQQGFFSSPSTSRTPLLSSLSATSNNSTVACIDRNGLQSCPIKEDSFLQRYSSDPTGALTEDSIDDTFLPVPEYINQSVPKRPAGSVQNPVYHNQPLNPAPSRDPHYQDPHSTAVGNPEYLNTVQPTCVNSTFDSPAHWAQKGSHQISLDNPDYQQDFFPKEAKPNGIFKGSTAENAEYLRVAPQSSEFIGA
Method: as §2

[4] = test system: phosphorylation of EGFR and Erk in H1975 cells; experiment: Western blot of EGFR signaling in H1975 cells; format: cell-based, human; conditions: 4 h
Method: as §3
Cells were treated with or without compound YL143 for 4 h at indicated concentration, respectively. Cells were harvested for Western blot analysis. […] NCI‐H1975 cells were treated with or without compound YL143(100 nmol/L) for 4 h, and then the medium with compound was removed and fresh medium was added. At the indicated time points, cells were harvest and proteins were extracted and subjected to Western blot analysis.

BaF3 = experiment: CCK-8 assay, BaF3 cells; format: cell-based; conditions: Mus musculus, AV±SD, read-out: anti-proliferative activity BaF3
Method: as §4
The anti-proliferative activities of the compounds were evaluated using CCK-8 assay. The data were means from at least four independent experiments.

PDGFRA, sequence (P16234 24-1089, species assumed): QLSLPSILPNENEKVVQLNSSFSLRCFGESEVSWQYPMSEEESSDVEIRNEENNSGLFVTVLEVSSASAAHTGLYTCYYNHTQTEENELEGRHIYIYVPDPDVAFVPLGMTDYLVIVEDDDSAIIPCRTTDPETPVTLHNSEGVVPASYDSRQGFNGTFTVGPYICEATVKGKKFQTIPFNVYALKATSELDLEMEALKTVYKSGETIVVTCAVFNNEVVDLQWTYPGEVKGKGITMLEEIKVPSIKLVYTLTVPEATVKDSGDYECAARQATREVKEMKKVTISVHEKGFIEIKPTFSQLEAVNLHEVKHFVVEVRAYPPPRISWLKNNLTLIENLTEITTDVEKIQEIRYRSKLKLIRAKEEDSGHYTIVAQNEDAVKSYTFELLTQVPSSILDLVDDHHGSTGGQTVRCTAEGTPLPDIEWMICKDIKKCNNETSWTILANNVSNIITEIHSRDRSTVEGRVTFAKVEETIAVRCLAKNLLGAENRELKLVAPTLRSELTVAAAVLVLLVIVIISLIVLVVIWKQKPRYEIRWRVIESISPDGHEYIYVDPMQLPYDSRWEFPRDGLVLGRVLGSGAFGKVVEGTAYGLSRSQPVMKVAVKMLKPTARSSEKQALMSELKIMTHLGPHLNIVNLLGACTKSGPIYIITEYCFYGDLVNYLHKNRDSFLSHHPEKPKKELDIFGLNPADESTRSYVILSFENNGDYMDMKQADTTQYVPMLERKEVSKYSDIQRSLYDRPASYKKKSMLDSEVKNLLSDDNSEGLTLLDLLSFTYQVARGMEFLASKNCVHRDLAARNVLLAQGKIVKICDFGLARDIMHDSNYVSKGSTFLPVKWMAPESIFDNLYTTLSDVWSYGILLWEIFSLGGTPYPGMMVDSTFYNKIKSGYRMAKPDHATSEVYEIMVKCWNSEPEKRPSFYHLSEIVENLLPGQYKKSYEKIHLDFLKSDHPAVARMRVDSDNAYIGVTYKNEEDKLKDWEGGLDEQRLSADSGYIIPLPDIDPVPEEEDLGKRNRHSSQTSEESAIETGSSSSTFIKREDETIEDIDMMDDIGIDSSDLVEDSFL

Compound: C=CC(=O)Nc1cc(C)cc(-n2c(=O)cc(C)c3cnc(Nc4ccc(N5CCN(C)CC5)cc4OC)nc32)c1 [YL143, N‐(3‐(2‐((2‐Methoxy‐4‐(4‐methylpiperazin‐1‐yl)phenyl)amino)‐5‐methyl‐7‐oxopyrido [2,3‐d]pyrimidin‐8(7H)‐yl)‐5‐methylphenyl)acrylamide]
- IC50 (PDGFRA): > 10 µM
- IC50 (EGFR^L858R/T790M; AV ± SD, 1.5 h incubation): 0.002 ± 0.0003 µM
- potency factor over CO1686 and osimertinib on EGFR^L858R/T790M (EGFR^L858R/T790M; parallel comparison): 5–7
- effect on EGFR signal pathway [1]: obviously less potent
- IC50 (IGF1R): > 1 µM
- IC50 (Abl): > 10 µM
- IC50 [2]: 0.0211 ± 0.0099 µM
- protein levels of CDK2, CDK4, cyclin D2, cyclin E [3]: dose‐dependently decreased
- IC50 (TRKA): > 10 µM
- IC50 (EGFR^Del 19): 0.0815 ± 0.0103 µM
- phosphorylation of EGFR and Erk [4]: dose‐dependently inhibited
- IC50 (BaF3): > 10 µM
